Test results reported in patent publication US8309730B2, “Nonsteroidal compounds useful as modulators of glucocorticoid receptor AP-1 and/or NF-kappab acitivity and use thereof” (Bristol-Myers Squibb Company, priority 2007, dated 2012).

Molecular target: T1, human glucocorticoid receptor (Homo sapiens, UniProt P04150)
T1 construct: purified human recombinant full-length glucocorticoid receptor (2 nM); purchased Invitrogen Part #2893
T1 sequence (P04150 1-777): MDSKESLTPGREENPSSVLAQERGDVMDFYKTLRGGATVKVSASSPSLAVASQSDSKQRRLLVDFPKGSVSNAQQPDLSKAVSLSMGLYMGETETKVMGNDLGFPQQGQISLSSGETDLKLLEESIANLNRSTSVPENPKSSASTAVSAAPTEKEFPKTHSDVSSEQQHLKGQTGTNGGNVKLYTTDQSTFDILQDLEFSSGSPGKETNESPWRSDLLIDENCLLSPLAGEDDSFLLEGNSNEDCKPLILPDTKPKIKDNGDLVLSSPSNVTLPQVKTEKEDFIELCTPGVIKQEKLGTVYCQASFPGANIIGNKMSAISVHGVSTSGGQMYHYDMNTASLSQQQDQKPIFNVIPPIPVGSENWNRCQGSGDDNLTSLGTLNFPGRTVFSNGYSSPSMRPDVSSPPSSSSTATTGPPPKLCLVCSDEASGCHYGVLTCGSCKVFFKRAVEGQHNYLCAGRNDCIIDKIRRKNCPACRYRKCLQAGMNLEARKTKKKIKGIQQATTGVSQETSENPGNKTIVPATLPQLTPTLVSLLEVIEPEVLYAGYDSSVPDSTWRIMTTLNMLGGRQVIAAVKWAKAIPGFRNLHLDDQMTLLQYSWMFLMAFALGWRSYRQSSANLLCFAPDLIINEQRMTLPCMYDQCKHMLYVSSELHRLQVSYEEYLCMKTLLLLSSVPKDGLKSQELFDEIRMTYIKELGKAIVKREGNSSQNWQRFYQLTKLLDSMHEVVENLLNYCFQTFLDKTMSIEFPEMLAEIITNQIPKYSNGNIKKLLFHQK
Experiment: Glucocorticoid Receptor Binding Assay (I), fluorescence polarization competitor kit
Conditions: purified human recombinant full-length GR, Fluormone GS Red, 2 h room temperature
Experimental: Briefly, purified human recombinant full-length glucocorticoid receptor (2 nM) was mixed with fluorescently labeled glucocorticoid (1 nM Fluormone GS Red) in the presence or absence of test compound. After two hours incubation at room temperature in the dark, the fluorescence polarization (FP) of the sample was measured. […] Test compounds were analyzed in the concentration range from 8.5E-05 μM to 5 μM.

Row | SMILES | Ki [nM]
1 | CC(C)(O)c1ccc([C@@](C)(O)[C@H]2CCCC3=Cc4c(-c5ccc(F)cc5)ncn4C[C@@]32C)cc1 [Example 98] | 4.45
2 | C[C@]12Cn3cnc(-c4ccc(F)cc4)c3C=C1CCC[C@@H]2CC(=O)Nc1nccs1 [Example 86] | 67.1
3 | C[C@]12Cn3cnc(-c4ccc(F)cc4)c3C=C1CCC[C@@H]2[C@H](O)c1ccc(F)cc1 [Example 50] | 29.7
4 | CO[C@](C)(c1cccs1)[C@H]1CCCC2=Cc3c(-c4ccc(F)cc4)ncn3C[C@@]21C [Example 2, (5aR,6S)-1-(4-Fluorophenyl)-6-((S)-1-methoxy-1-(thiophen-2-yl)ethyl)-5a-methyl-5,5a,6,7,8,9-hexahydroimidazo[1,5-b]isoquinoline] | 69.8
5 | C[C@]12Cn3cnc(-c4ccccc4)c3C=C1CCC[C@@H]2[C@](C)(O)c1ccccc1 (racemic) [Example 35] | 6.4
6 | C[C@]12Cn3cnc(-c4ccc(F)cc4)c3C=C1CCC[C@@H]2[C@H](O)C(F)(F)F [Example 91] | 85.5
7 | C[C@]12Cn3cnc(-c4ccc(F)cc4)c3C=C1CCC[C@@H]2[C@](C)(O)c1cccc(S(C)(=O)=O)c1 [Example 8a, (S)-1-((5aR,6S)-1-(4-fluorophenyl)-5a-methyl-5,5a,6,7,8,9-hexahydroimidazo[1,5-b]isoquinolin-6-yl)-1-(3-(methylsulfonyl)phenyl)ethanol] | 2.12
8 | C[C@]12Cn3cnc(-c4ccccc4)c3C=C1CCC[C@@H]2[C@](O)(c1csc2ccccc12)C(F)(F)F (racemic) [Example 38] | 111
9 | C[C@]12Cn3cnc(-c4ccc(F)cc4)c3C=C1CCC[C@@H]2CC(=O)Nc1nncs1 [Example 6, 2-((5aR,6R)-1-(4-fluorophenyl)-5a-methyl-5,5a,6,7,8,9-hexahydroimidazo[1,5-b]isoquinolin-6-yl)-N-(1,3,4-thiadiazol-2-yl)acetamide] | 7.13
10 | C[C@]12Cn3cnc(-c4ccc(F)cc4)c3C=C1CCC[C@@H]2[C@](C)(O)c1ncccn1 [Example 11, (S)-1-((5aR,6S)-1-(4-Fluorophenyl)-5a-methyl-5,5a,6,7,8,9-hexahydroimidazo[1,5-b]isoquinolin-6-yl)-1-(pyrimidin-2-yl)ethanol] | 68.2
11 | CC(C)C[C@@](C)(O)[C@H]1CCCC2=Cc3c(-c4ccc(F)cc4)ncn3C[C@@]21C [Example 59] | 9.67
12 | C[C@]12Cn3cnc(-c4ccc(F)cc4)c3C=C1CCC[C@@H]2C(=O)C1CCOCC1 [Example 94] | 344
13 | C[C@]12Cn3cnc(-c4ccccc4)c3C=C1CCC[C@@H]2C(=O)c1csc2ccccc12 (racemic) [Example 34] | > 1150
14 | C=CC[C@H](O)[C@H]1CCCC2=Cc3c(-c4ccccc4)ncn3C[C@@]21C (racemic) [Example 18] | 26.9
15 | C[C@@H](O)[C@H]1CCCC2=Cc3c(-c4ccccc4)ncn3C[C@@]21C (racemic) [Example 25] | 202
16 | CC[C@@](O)(c1ccccc1)[C@H]1CCCC2=Cc3c(-c4ccccc4)ncn3C[C@@]21C (racemic) [Example 36] | 8.71
17 | C[C@]12Cn3cnc(-c4ccc(F)cc4)c3C=C1CCC[C@@H]2[C@](C)(O)C#Cc1ccccc1 [Example 70] | 59.9
18 | C[C@]12Cn3cnc(-c4ccc(F)cc4)c3C=C1CCC[C@@H]2C(=O)c1ccc(F)cc1 [Example 47] | 878
19 | C[C@]12Cn3cnc(-c4ccccc4)c3C=C1CCC[C@@H]2[C@@H](O)c1csc2ccccc12 (single isomer, unassigned) [Example 30] | 22.5
20 | COc1ccc([C@H](O)[C@H]2CCCC3=Cc4c(-c5ccccc5)ncn4C[C@@]32C)cc1 (racemic) [Example 16] | 90.1
21 | C=CC[C@H](O)[C@H]1CCCC2=Cc3c(-c4ccc(F)cc4)ncn3C[C@@]21C [Example 51] | 7.38
22 | C[C@]12Cn3cnc(-c4ccccc4)c3C=C1CCC[C@@H]2[C@@H](O)C1CCCCC1 (racemic) [Example 21] | 20.2
23 | C[C@]12Cn3cnc(-c4ccc(F)cc4)c3C=C1CCC[C@@H]2CNc1nccs1 [Example 4b, N-(((5aR,6S)-1-(4-fluorophenyl)-5a-methyl-5,5a,6,7,8,9-hexahydroimidazo[1,5-b]isoquinolin-6-yl)methyl)thiazol-2-amine] | 215
24 | COc1cccc([C@@H](O)[C@H]2CCCC3=Cc4c(-c5ccccc5)ncn4C[C@@]32C)c1 (racemic) [Example 23] | 57.5
25 | C[C@]12Cn3cnc(-c4ccccc4)c3C=C1CCC[C@@H]2C(=O)c1ccccc1 (racemic) [Example 33] | > 1150
26 | C[C@]12Cn3cnc(-c4ccc(F)cc4)c3C=C1CCC[C@@H]2C(=O)c1csc2ccccc12 (single isomer, unassigned) [Example 43] | > 1150

Row | SMILES | Ki [nM]
27 | C[C@]12Cn3cnc(-c4ccc(F)cc4)c3C=C1CCC[C@@H]2[C@@H](O)C(F)(F)F [Example 90] | 103
28 | CC(C)(C)NC(=O)NCC[C@H]1CCCC2=Cc3c(-c4ccc(F)cc4)ncn3C[C@@]21C [Example 7, 1-tert-Butyl-3-(2-((5aR,6R)-1-(4-fluorophenyl)-5a-methyl-5,5a,6,7,8,9-hexahydroimidazo[1,5-b]isoquinolin-6-yl)ethyl)urea] | 95.7
29 | C[C@]12Cn3cnc(-c4ccc(F)cc4)c3C=C1CCC[C@@H]2[C@]1(C)OC(=O)c2ccccc21 [Example 85] | 177
30 | C[C@]12Cn3cnc(-c4ccccc4)c3C=C1CCC[C@@H]2[C@@H](O)c1ccccc1 (single isomer, unassigned) [Example 13] | > 1150
31 | C[C@]12Cn3cnc(-c4ccccc4)c3C=C1CCC[C@@H]2[C@H](O)c1csc2ccccc12 (single isomer, unassigned) [Example 28] | 493
32 | C[C@]12Cn3cnc(-c4ccc(F)cc4)c3C=C1CCC[C@@H]2C(=O)c1ccccc1CN1CCCC1 [Example 72] | > 1150
33 | C[C@]12Cn3cnc(-c4ccc(F)cc4)c3C=C1CCC[C@@H]2[C@]1(C)OC(=N)c2ccccc21 [Example 84] | 201
34 | COc1ccc([C@@H](O)[C@H]2CCCC3=Cc4c(-c5ccccc5)ncn4C[C@@]32C)cc1 (racemic) [Example 17] | 93.4
35 | CC12Cn3cnc(-c4ccc(F)cc4)c3C=C1CCCC2(O)c1ccc(Cl)cc1 (racemic) [Example 103] | 216
36 | C[C@]12Cn3cnc(-c4ccc(F)cc4)c3C=C1CCC[C@@H]2C(=O)c1csc2ccccc12 (single isomer, unassigned) [Example 44] | > 1150
37 | C=CC[C@@H](O)[C@H]1CCCC2=Cc3c(-c4ccc(F)cc4)ncn3C[C@@]21C [Example 52] | 8.67
38 | Cc1cccc(C)c1C(=O)[C@H]1CCCC2=Cc3c(-c4ccc(F)cc4)ncn3C[C@@]21C [Example 76] | 207
39 | C[C@]12Cn3cnc(-c4ccc(F)cc4)c3C=C1CCC[C@@H]2[C@](C)(O)c1ccc(C#N)cc1 [Example 79] | 3.42
40 | C[C@H](O)[C@H]1CCCC2=Cc3c(-c4ccccc4)ncn3C[C@@]21C (racemic) [Example 24] | 364
41 | C[C@]12Cn3cnc(-c4ccc(F)cc4)c3C=C1CCC[C@@H]2CO [Example 4a, ((5aR,6S)-1-(4-Fluorophenyl)-5a-methyl-5,5a,6,7,8,9-hexahydroimidazo[1,5-b]isoquinolin-6-yl)methanol] | 111
42 | C=CC[C@@H](O)[C@H]1CCCC2=Cc3c(-c4ccccc4)ncn3C[C@@]21C (racemic) [Example 19] | 22.3
43 | C=CC1(O)CCCC2=Cc3c(-c4ccc(F)cc4)ncn3CC21C (stereo not drawn) [Example 101, 1-(4-Fluorophenyl)-5a-methyl-6-vinyl-5,5a,6,7,8,9-hexahydroimidazo[1,5-b]isoquinolin-6-ol] | 755
44 | C[C@]12Cn3cnc(-c4ccccc4)c3C=C1CCC[C@@H]2[C@](C)(O)c1csc2ccccc12 (single isomer, unassigned) [Example 32] | > 1150
45 | CC[C@@](O)(c1csc2ccccc12)[C@H]1CCCC2=Cc3c(-c4ccccc4)ncn3C[C@@]21C (racemic) [Example 37] | 209
46 | COc1cccc([C@H](O)[C@H]2CCCC3=Cc4c(-c5ccccc5)ncn4C[C@@]32C)c1 (racemic) [Example 22] | 94.4
47 | CC(C)(C)OC(=O)NCC[C@H]1CCCC2=Cc3c(-c4ccc(F)cc4)ncn3C[C@@]21C [Example 88] | 11.4
48 | C[C@]12Cn3cnc(-c4ccc(F)cc4)c3C=C1CCC[C@@H]2[C@](C)(O)c1csc2ccccc12 (single isomer, unassigned) [Example 45] | 73.2
49 | CC(=O)[C@H]1CCCC2=Cc3c(-c4ccccc4)ncn3C[C@@]21C [Example 26] | > 1150
50 | C[C@]12Cn3cnc(-c4ccccc4)c3C=C1CCC[C@@H]2[C@@H](O)Cc1ccccc1 (racemic) [Example 20] | 18.3
51 | C[C@]12Cn3cnc(-c4ccc(F)cc4)c3C=C1CCC[C@@H]2[C@](C)(O)c1csc2ccccc12 (single isomer, unassigned) [Example 46] | 1.43
